Measurements reported in patent publication US9427438B2, “Compositions and methods for treating Alzheimer's disease” (EIP Pharma, LLC, priority 2011, dated 2016).

Legend:
[1] = cited from earlier work
IL-1β = IL-1β ELISA of brain tissue of treated Tg2576 mice; type: in vivo, mouse; conditions: 3 mg/kg BID, 2 weeks, soluble dorsal cortex fraction
[2] = cited from earlier work; remark: listed apart in the source
rodent arthritis models = conditions: cited from earlier work
[3] = system: Alzheimer's disease (AD) transgenic Tg2576 mouse model; experiment: Amyloid plaque load by Aβ immunohistochemistry after 2-week oral treatment of Tg2576 mice; type: in vivo; conditions: Tg2576 mice aged 26 months, 3 mg/kg BID oral, 2 weeks
osteoarthritis model = conditions: rats, 50 mg/kg; cited from earlier work
hyperalgesia model = conditions: cited from earlier work
[4] = dogs; cited from earlier work
[5] = animals; cited from earlier work
arthritis model = conditions: 10 mg/kg dose, reference compound; cited from earlier work
[6] = high doses; cited from earlier work
p38 MAPK = conditions: neurons preincubated in vitro; cited from earlier work

| Compound | plasma protein binding [1] | IL-1β levels compared to wild-type or control animals (IL-1β) | adverse events in rheumatoid arthritis patients ([2]; 250 mg b.i.d., humans) | adverse neurological effects in humans [2] | therapeutically effective unit dose for the treatment of rheumatoid arthritis ([2]; humans) [mg] | anti-inflammatory activity (rodent arthritis models) | decrease of amyloid plaque area in the cortex as compared with vehicle ([3]; cortex) [%] | mean amyloid plaque area, cortex ([3]; cortex (vehicle control 27.7%)) [%] | decrease of amyloid plaque area in the hippocampus as compared with vehicle ([3]; hippocampus) [%] | mean amyloid plaque area, hippocampus ([3]; hippocampus (vehicle control 13.6%)) [%] | inhibition of knee degeneration compared to control animals (osteoarthritis model) | effect on hyperalgesia at the lowest dose (hyperalgesia model; 3 mg/kg dose) | inhibition of hyperalgesic response (hyperalgesia model; rats, doses of 30 mg/kg, 10 mg/kg and 3 mg/kg) | brain levels relative to systemic levels [4] | blood brain barrier penetration [5] | inhibition of paw swelling (arthritis model) | adverse neurological effects in animals [6] | blocking of the enhancement of MAPT phosphorylation (p38 MAPK) |
| --- | --- | --- | --- | --- | --- | --- | --- | --- | --- | --- | --- | --- | --- | --- | --- | --- | --- | --- |
| O=c1ncn2nc(Sc3ccc(F)cc3F)ccc2c1-c1c(Cl)cccc1Cl [VX-745] | highly protein-bound | no increases in IL-1β levels | adverse events, including gastrointestinal effects such as diarrhea and abdominal pain, and elevations in liver transaminases | not observed in humans | 250 | significant anti-inflammatory activity | 32.5 | 18.7 | 61.8 | 5.2 | statistically significant inhibition of knee degeneration | minimal effect | significant inhibition of hyperalgesic response | twice that of systemic levels | known to penetrate the blood brain barrier (BBB) | not as effective at inhibiting paw swelling as other compounds assayed | experienced adverse neurological effects | – |
| C[S+]([O-])c1ccc(-c2nc(-c3ccc(F)cc3)c(-c3ccncc3)[nH]2)cc1 (stereo not drawn) [SB203580] | – | – | – | – | – | – | – | – | – | – | – | – | – | – | – | – | – | could be blocked |
